Data reported in ChEMBL document CHEMBL1795272, “Rhamnetin production based on the rational design of the poplar O-methyltransferase enzyme and its biological activities” (Bioorg Med Chem Lett, 2011).
Calls of active or inactive are those of the source. The calls are words filed in the database; no cut-off is given here.

Experiments:
MDA-MB-231 [1] = assay: Increase in c-Fos protein expression in human MDA-MB-231 cells at 20 uM within 30 mins by Western blot analysis; type: functional, cell-based
MDA-MB-231 [2] = assay: Increase in Egr-1 protein expression in human MDA-MB-231 cells at 20 uM within 30 mins by Western blot analysis; type: functional, cell-based
MDA-MB-231 [3] = assay: Effect on p38 kinase protein level in human MDA-MB-231 cells at 20 uM up to 120 mins by Western blot analysis; type: functional, cell-based
MDA-MB-231 [4] = assay: Effect on JNK2 protein level in human MDA-MB-231 cells at 20 uM up to 120 mins by Western blot analysis; type: functional, cell-based
MDA-MB-231 [5] = assay: Effect on JNK1 protein level in human MDA-MB-231 cells at 20 uM up to 120 mins by Western blot analysis; type: functional, cell-based
MDA-MB-231 [6] = assay: Effect on ERK2 protein level in human MDA-MB-231 cells at 20 uM up to 120 mins by Western blot analysis; type: functional, cell-based
MDA-MB-231 [7] = assay: Effect on ERK1 protein level in human MDA-MB-231 cells at 20 uM up to 120 mins by Western blot analysis; type: functional, cell-based
[8] = biological target: MAP kinase p38 (Homo sapiens) (UniProt O15264+Q15759+Q16539+P53778); assay: Increase in p38 kinase phosphorylation in human MDA-MB-231 cells at 20 uM by Western blot analysis; type: cell-based; conditions: TDE = time-dependent effect
[9] = biological target: Mitogen-activated protein kinase 9 (Homo sapiens) (UniProt P45984); assay: Increase in JNK2 phosphorylation in human MDA-MB-231 cells at 20 uM by Western blot analysis; type: cell-based; conditions: TDE = time-dependent effect
Mitogen-activated protein kinase 9 (Homo sapiens), sequence (P45984 whole entry, looked up): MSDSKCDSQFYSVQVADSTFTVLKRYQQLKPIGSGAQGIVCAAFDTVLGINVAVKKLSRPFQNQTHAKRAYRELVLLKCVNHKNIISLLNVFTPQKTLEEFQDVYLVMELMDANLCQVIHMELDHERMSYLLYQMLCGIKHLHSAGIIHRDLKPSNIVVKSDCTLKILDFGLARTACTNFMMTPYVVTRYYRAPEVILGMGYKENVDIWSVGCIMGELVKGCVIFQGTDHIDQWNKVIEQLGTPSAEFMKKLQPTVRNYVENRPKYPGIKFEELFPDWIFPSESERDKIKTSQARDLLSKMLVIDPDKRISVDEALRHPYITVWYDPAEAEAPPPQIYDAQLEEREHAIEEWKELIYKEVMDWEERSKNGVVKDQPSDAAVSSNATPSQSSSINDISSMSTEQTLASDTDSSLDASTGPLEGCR

[10] = biological target: Mitogen-activated protein kinase 1 (Homo sapiens) (UniProt P28482); assay: Increase in ERK2 phosphorylation in human MDA-MB-231 cells at 20 uM by Western blot analysis; type: cell-based; conditions: TDE = time-dependent effect
Mitogen-activated protein kinase 1 (Homo sapiens), sequence (P28482 whole entry): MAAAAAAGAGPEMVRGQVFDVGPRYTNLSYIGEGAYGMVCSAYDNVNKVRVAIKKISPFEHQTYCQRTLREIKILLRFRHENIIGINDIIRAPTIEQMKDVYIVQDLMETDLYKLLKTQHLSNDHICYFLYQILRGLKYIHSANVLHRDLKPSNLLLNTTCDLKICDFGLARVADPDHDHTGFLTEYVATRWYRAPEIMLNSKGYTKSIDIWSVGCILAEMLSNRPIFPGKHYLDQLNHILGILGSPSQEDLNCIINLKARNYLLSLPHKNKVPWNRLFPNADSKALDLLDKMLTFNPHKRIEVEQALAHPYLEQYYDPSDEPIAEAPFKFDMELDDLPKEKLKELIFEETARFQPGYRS

[11] = biological target: Mitogen-activated protein kinase 8 (Homo sapiens) (UniProt P45983); assay: Increase in JNK1 phosphorylation in human MDA-MB-231 cells at 20 uM by Western blot analysis; type: cell-based; conditions: TDE = time-dependent effect
Mitogen-activated protein kinase 8 (Homo sapiens), sequence (P45983 whole entry): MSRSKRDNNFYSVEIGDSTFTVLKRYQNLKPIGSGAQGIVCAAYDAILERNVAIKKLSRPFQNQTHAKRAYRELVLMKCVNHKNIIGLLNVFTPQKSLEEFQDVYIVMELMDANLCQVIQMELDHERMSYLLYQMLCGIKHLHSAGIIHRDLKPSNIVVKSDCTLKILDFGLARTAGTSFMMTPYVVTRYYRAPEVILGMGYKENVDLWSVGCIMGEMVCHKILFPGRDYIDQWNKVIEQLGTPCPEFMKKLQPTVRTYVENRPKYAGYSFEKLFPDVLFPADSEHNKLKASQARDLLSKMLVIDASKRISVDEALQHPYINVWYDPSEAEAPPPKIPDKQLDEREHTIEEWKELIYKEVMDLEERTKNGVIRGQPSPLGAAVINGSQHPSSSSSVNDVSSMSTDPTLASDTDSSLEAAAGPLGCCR

[12] = biological target: Mitogen-activated protein kinase 3 (Homo sapiens) (UniProt P27361); assay: Increase in ERK1 phosphorylation in human MDA-MB-231 cells at 20 uM by Western blot analysis; type: cell-based; conditions: TDE = time-dependent effect
Mitogen-activated protein kinase 3 (Homo sapiens), sequence (P27361 whole entry): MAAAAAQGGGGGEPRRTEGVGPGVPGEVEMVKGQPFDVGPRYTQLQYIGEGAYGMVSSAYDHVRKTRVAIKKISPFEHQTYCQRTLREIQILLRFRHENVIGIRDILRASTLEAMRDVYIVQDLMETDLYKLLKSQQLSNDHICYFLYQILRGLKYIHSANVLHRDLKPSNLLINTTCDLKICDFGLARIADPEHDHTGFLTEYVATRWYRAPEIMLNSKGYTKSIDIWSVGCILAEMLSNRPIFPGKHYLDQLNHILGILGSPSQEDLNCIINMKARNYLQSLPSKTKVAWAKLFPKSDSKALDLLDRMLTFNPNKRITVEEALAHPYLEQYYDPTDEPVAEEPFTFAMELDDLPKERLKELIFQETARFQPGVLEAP

MDA-MB-231 [13] = assay: Induction of apoptosis in human MDA-MB-231 cells assessed as cleaved caspase-7 accumulation at 20 uM after 12 hrs by Western blot analysis; type: functional, cell-based
[14] = Stability of the compound in DMEM media assessed as compound degradation at 25 ppm after 3 hrs by HPLC; type: physicochemical; conditions: read-out: Activity

Structure (SMILES) | Activity (MDA-MB-231 [1]) | Activity (MDA-MB-231 [2]) | Activity (MDA-MB-231 [3]) | Activity (MDA-MB-231 [4]) | Activity (MDA-MB-231 [5]) | Activity (MDA-MB-231 [6]) | Activity (MDA-MB-231 [7]) | Activity [8] | Activity [9] | Activity [10] | Activity [11] | Activity [12] | Activity (MDA-MB-231 [13]) | degraded at 3 h, 25 ppm [14]
O=c1c(O)c(-c2ccc(O)c(O)c2)oc2cc(O)cc(O)c12 [QUERCETIN] | Active | Active | inactive | inactive | inactive | inactive | inactive | tde | tde | tde | tde | tde | Active | 60%
COc1cc(O)c2c(=O)c(O)c(-c3ccc(O)c(O)c3)oc2c1 [RHAMNETIN] | Active | Active | inactive | inactive | inactive | inactive | inactive | tde | tde | tde | tde | tde | Active | 4%
